US12522597B2, “Methods and compositions for modulating splicing” (Skyhawk Therapeutics, Inc., priority 2019, dated 2026)

What was measured:
MDR1 = test: MDCK-MDR1 permeability assay (BBB penetration potential); type: in vitro ADME; details: dog; for efflux ratio at 120 min, 5 μM: MDCK-MDR1, pH 7.4, MDCK-MDR1: Efflux; for Papp A→B at 120 min, 5 μM: MDCK-MDR1, pH 7.4, MDCK-MDR1: Papp A-B; for Papp B→A at 120 min, 5 μM: MDCK-MDR1, pH 7.4, MDCK-MDR1: Papp B-A
Protocol: (§1) Each determination is performed in duplicate. […] Analytical conditions are outlined below.

[1] = tested on: MDR1-MDCK cell monolayers; test: as above; type: in vitro ADME; details: dog, MDCK-MDR1, 120 min, 5 μM, pH 7.4
Protocol: as §1

mHTT protein = mHTT protein assay (2B7-MW1, Mesoscale Discovery); type: cell-based, human; details: GM04724 (CAG 70/20) Huntington's disease patient lymphoblast cells, 48 hours, 2B7-MW1 MSD; read-out: HTT Potency - Protein EC50 mHTT (average)
In short: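 GM04724 Huntington's patient lymphoblasts (CAG 70/20) were treated for 48 h at 10 μM to 0.6 nM. mHTT was quantified by 2B7-MW1 MSD immunoassay, whose signal depends on polyQ expansion and HTT fragment size. Viability was run on a parallel plate by CellTiter-Glo.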

Row | SMILES | efflux ratio at 120 min, 5 μM (MDR1) | Papp A→B at 120 min, 5 μM (MDR1) [×10⁻⁶ cm/s] | Papp B→A at 120 min, 5 μM (MDR1) [×10⁻⁶ cm/s] | MDCK-MDR1: % Recov A-B [1] [%] | MDCK-MDR1: % Recov B-A [1] [%] | EC50 (mHTT protein) [nM]
1 | Oc1cc(-c2nnco2)c(F)cc1-c1ccc(O[C@@H]2C[C@H]3CC[C@H](N3)[C@@H]2F)nn1 (stereo in doubt) [142-ENT1, 4-fluoro-2-(6-(((1S,2S,3R,5R)-2-fluoro-8-azabicyclo[3.2.1]octan-3-yl)oxy)pyridazin-3-yl)-5-(1,3,4-oxadiazol-2-yl)phenol] | 6 | 6.9 | 41.8 | 98 | 103 | 51 to 100
2 | Oc1cc(-c2ccccn2)ccc1-c1ccc(O[C@@H]2C[C@H]3CCC[C@H](N3)[C@@H]2F)nn1 (single isomer, unassigned) [77-ENT1] | 4 | 5.64 | 22.7 | 52 | 70 | 101 to 500
3 | Oc1cc(-c2cn[nH]c2)ccc1-c1ccc(O[C@@H]2C[C@H]3CCC[C@H](N3)[C@H]2F)nn1 (single isomer, unassigned) [41-ENT2] | 8 | 4.96 | 40.9 | 66 | 74 | 16 to 50
4 | Cn1cnc(-c2ccc(-c3ccc(O[C@H]4C[C@]5(C)CCC[C@@](C)(N5)[C@H]4F)nn3)c(O)c2)cc1=O (single isomer, unassigned) [139-ENT2] | 15 | 1.97 | 28.7 | 88 | 87 | 0.01 to 15
5 | Cc1cc(-c2ccc(-c3ccc(O[C@@H]4C[C@H]5CCC[C@H](N5)[C@@H]4F)nn3)c(O)c2)cs1 (single isomer, unassigned) [101-ENT1] | 1 | 0.86 | 0.76 | 25 | 70 | 101 to 500
6 | Oc1cc(-n2ccnc2)ccc1-c1ccc(O[C@@H]2C[C@H]3CC[C@H](N3)[C@@H]2F)nn1 (single isomer, unassigned) [36-ENT1] | 5 | 5.28 | 26 | 74 | 83 | 51 to 100
7 | Cc1cncc(-c2ccc(-c3ccc(O[C@H]4C[C@@H]5CCC[C@@H](N5)[C@H]4F)nn3)c(O)c2)n1 (single isomer, unassigned) [102-ENT2] | 6 | 7.93 | 48.4 | 86 | 89 | 101 to 500
8 | Oc1cc2ncccc2cc1-c1ccc(O[C@@H]2C[C@H]3CCC[C@H](N3)[C@@H]2F)nn1 (single isomer, unassigned) [103-ENT1] | 16 | 3.92 | 61.5 | 95 | 101 | 501 to 10000
9 | Oc1cc2cnccc2cc1-c1ccc(O[C@@H]2C[C@H]3CCC[C@H](N3)[C@@H]2F)nn1 (single isomer, unassigned) [80-ENT1] | 4 | 7.47 | 31.4 | 70 | 78 | 101 to 500
10 | C[C@@]12CC[C@@](C)(N1)[C@@H](F)[C@@H](Oc1ccc(-c3ccc(-n4cccn4)cc3O)nn1)C2 (single isomer, unassigned) [153-ENT2] | 3 | 7.16 | 24.7 | 60 | 71 | 16 to 50
11 | Oc1cc(-c2ccc3cncn3c2)ccc1-c1ccc(O[C@H]2C[C@@H]3CCC[C@@H](N3)[C@H]2F)nn1 (single isomer, unassigned) [85-ENT2] | 7 | 2.26 | 15.3 | 33 | 61 | 101 to 500
12 | Cc1cc(-c2ccc(-c3ccc(O[C@@H]4C[C@H]5CCC[C@H](N5)[C@@H]4F)nn3)c(O)c2)co1 (single isomer, unassigned) [98-ENT1] | 1 | 1.13 | 1.39 | 9 | 47 | 101 to 500
13 | Oc1cc(-c2nncs2)ccc1-c1ccc(O[C@@H]2C[C@H]3CCC[C@H](N3)[C@@H]2F)nn1 (single isomer, unassigned) [116-ENT1] | 8 | 7.76 | 59.2 | 88 | 91 | 16 to 50
14 | Oc1cc2ccncc2cc1-c1ccc(O[C@@H]2C[C@H]3CCC[C@H](N3)[C@@H]2F)nn1 (single isomer, unassigned) [81-ENT1] | 3 | 7.34 | 22.8 | 69 | 77 | 501 to 10000
15 | Cc1ccc(-c2ccc(-c3ccc(O[C@@H]4C[C@H]5CCC[C@H](N5)[C@@H]4F)nn3)c(O)c2)s1 (single isomer, unassigned) [100-ENT1] | 1 | 0.99 | 0.68 | 16 | 49 | 101 to 500
16 | Cc1cnc(-c2ccc(-c3ccc(O[C@H]4C[C@@H]5CCC[C@@H](N5)[C@H]4F)nn3)c(O)c2)cn1 (single isomer, unassigned) [78-ENT2] | 4 | 7.09 | 30 | 56 | 83 | 101 to 500
17 | CNC(=O)c1ccc2cc(-c3ccc(O[C@H]4C[C@]5(C)CCC[C@@](C)(N5)[C@H]4F)nn3)c(O)cc2n1 (single isomer, unassigned) [137-ENT1] | 16 | 2.56 | 40.1 | 58 | 70 | 0.01 to 15
18 | Oc1cc(-n2ccnn2)ccc1-c1ccc(O[C@H]2C[C@@H]3CCC[C@@H](N3)[C@H]2F)nn1 (single isomer, unassigned) [69-ENT2] | 5 | 10.7 | 55.9 | 86 | 93 | 101 to 500
19 | Oc1cc(-c2ccc3nncn3c2)ccc1-c1ccc(O[C@@H]2C[C@H]3CCC[C@H](N3)[C@@H]2F)nn1 (single isomer, unassigned) [73-ENT1] | 92 | 0.44 | 40.9 | 94 | 85 | 101 to 500
20 | Cn1cc(-c2ccc(-c3ccc(O[C@H]4C[C@@H]5COC[C@@H](N5)[C@H]4F)nn3)c(O)c2)cn1 (single isomer, unassigned) [124-ENT2] | 3 | 16.9 | 43.5 | 86 | 89 | 501 to 10000
21 | Cc1cc(-c2ccc(-c3ccc(O[C@@H]4C[C@H]5CCC[C@H](N5)[C@@H]4F)nn3)c(O)c2)cnn1 (single isomer, unassigned) [90-ENT1] | 33 | 1.82 | 60.5 | 103 | 99 | 101 to 500
22 | Oc1cc(-c2ccc3nccn3c2)ccc1-c1ccc(O[C@@H]2C[C@H]3CCC[C@H](N3)[C@@H]2F)nn1 (single isomer, unassigned) [84-ENT1] | 11 | 1.56 | 17 | 44 | 72 | 16 to 50
23 | CN(C)C(=O)c1cc2cc(O)c(-c3ccc(O[C@H]4C[C@]5(C)CCC[C@@](C)(N5)[C@H]4F)nn3)cc2o1 (single isomer, unassigned) [155-ENT2] | 17 | 3.84 | 63.7 | 102 | 102 | 501 to 10000
24 | Oc1cc(-n2ncc3ccccc32)ccc1-c1ccc(O[C@@H]2C[C@H]3CC[C@H](N3)[C@@H]2F)nn1 (single isomer, unassigned) [114-ENT1] | 3 | 4.74 | 13.5 | 22 | 47 | 501 to 10000
25 | Cn1ccc(-c2ccc(-c3ccc(O[C@@H]4C[C@H]5CCC[C@H](N5)[C@@H]4F)nn3)c(O)c2)nc1=O (single isomer, unassigned) [107-ENT1] | 90 | 0.11 | 10 | 90 | 90 | 101 to 500
26 | CNC(=O)c1ccc2cc(-c3ccc(O[C@H]4C[C@@H]5CCC[C@@H](N5)[C@H]4F)nn3)c(O)cc2n1 (single isomer, unassigned) [136-ENT1] | 28 | 2.27 | 62.3 | 88 | 101 | 0.01 to 15
